Results taken from EPA's ToxRefDB 2.

What was measured:
rat [1] = settings: Subchronic oral toxicity in rodents, fischer, Gavage/Intubation, dose end: 14 week, group: systemic
mouse [2] = settings: Carcinogenicity, b6c3f1, Oral, Gavage/Intubation, dose end: 105 week, group: systemic
mouse [3] = settings: Subchronic oral toxicity in rodents, b6c3f1, Gavage/Intubation, dose end: 14 week, group: systemic
rat [4] = settings: Carcinogenicity, fischer, Oral, Gavage/Intubation, dose end: 104 week, group: systemic
rat [5] = settings: Prenatal developmental toxicity study, sprague dawley, Oral, Gavage/Intubation, dose end: 15 GD
dog [6] = settings: Subchronic oral toxicity in nonrodent, beagle, Feed, dose end: 13 week, group: systemic
rat [7] = settings: Prenatal developmental toxicity study, sprague dawley, Oral, Gavage/Intubation, dose end: 15 GD; remark: listed apart in the source
mouse [8] = settings: Subchronic oral toxicity in rodents, b6c3f1, Feed, dose end: 90 day, group: systemic
rat [9] = settings: Developmental neurotoxicity study; wistar; Oral; Gavage/Intubation; dose end: 90 PND; group: cannot be grouped; systemic / in life observation / clinical signs / poor maternal care + systemic / in life observation / clinical signs / grip strength + …
rabbit = settings: Prenatal developmental toxicity study, new zealand white, Oral, Gavage/Intubation, dose end: 19 GD
dog [10] = settings: Chronic toxicity, beagle, Oral, Feed, dose end: 52 week, group: systemic
rat [11] = settings: Subchronic oral toxicity in rodents, fischer, Feed, dose end: 90 day, group: systemic, systemic / hematology / hematocrit (hct) / hematocrit (hct) + systemic / hematology / hemoglobin (hgb) / hemoglobin (hgb) + systemic / …
rat [12] = settings: Prenatal developmental toxicity study, sprague dawley, Oral, Gavage/Intubation, dose end: 15 GD; remark: listed apart in the source
mouse [13] = settings: Carcinogenicity, cd1, Oral, Feed, dose end: 18 month, group: systemic
rat [14] = settings: Combined chronic toxicity/carcinogenicity, fischer, Dermal, Topical, dose end: 2 year, group: systemic
mouse [15] = settings: Subchronic oral toxicity in rodents, b6c3f1, Dermal, Topical, dose end: 14 week, group: systemic
rat [16] = settings: Subchronic oral toxicity in rodents, fischer, Dermal, Topical, dose end: 14 week, group: systemic
mouse [17] = settings: Carcinogenicity; b6c3f1; Dermal; Topical; dose end: 2 year; group: systemic; systemic / pathology microscopic / skin / hyperplasia
[18] = systemic / organ weight / kidney / relative to body weight
[19] = systemic / organ weight / kidney / relative to body weight + systemic / clinical chemistry / alanine aminotransferase (alt/sgpt) / alanine …
[20] = systemic / pathology microscopic / kidney / glomerulonephropathy + systemic / pathology microscopic / liver / [other] + systemic / pathology…
[21] = systemic / pathology microscopic / liver / clear cell focus + systemic / pathology microscopic / nose / degeneration + systemic / pathology …
[22] = systemic / organ weight / liver / absolute
[23] = systemic / organ weight / liver / absolute + systemic / organ weight / liver / relative to body weight
[24] = systemic / pathology microscopic / liver / basophilic focus + systemic / pathology microscopic / liver / fatty change + systemic / pathology…
[25] = group: developmental, developmental / developmental malformation / bone / incomplete ossification + developmental / developmental malformation / bone / …
[26] = group: maternal, systemic / organ weight / spleen / relative to brain weight + systemic / pathology microscopic / spleen / hematopoietic cell proliferation
[27] = group: maternal, systemic / organ weight / spleen / relative to brain weight + systemic / pathology microscopic / spleen / hematopoietic cell proliferation…
[28] = systemic / clinical chemistry / alkaline phosphatase (alp/alk) / alkaline phosphatase (alp/alk) + systemic / hematology / hematocrit (hct…
[29] = group: developmental, developmental / developmental malformation / bone / ossification sites + systemic / in life observation / body weight / fetal weight
[30] = group: developmental, developmental / developmental malformation / bone / ossification sites + systemic / in life observation / body weight / fetal weight + …
[31] = systemic / hematology / erythrocyte (rbc) count differential / erythrocyte (rbc) + systemic / hematology / hematocrit (hct) / hematocrit (…
[32] = group: developmental, systemic / in life observation / body weight / fetal weight
[33] = group: developmental, systemic / in life observation / body weight / fetal weight + developmental / developmental malformation / bone / fused + developmental / …
[34] = group: maternal, reproductive / reproductive performance / aborted / aborted + reproductive / reproductive performance / resorptions / resorptions + systemic…
[35] = systemic / hematology / microcytosis / microcytosis + systemic / clinical chemistry / albumin / albumin + systemic / clinical chemistry / …
[36] = group: maternal, reproductive / reproductive performance / postimplantation loss / postimplantation loss + reproductive / reproductive performance / …
[37] = systemic / pathology microscopic / adrenal gland / amyloid deposition + systemic / pathology microscopic / kidney / amyloid deposition + …
[38] = systemic / pathology microscopic / skin / hyperplasia
[39] = systemic / in life observation / clinical signs / skin discoloration + systemic / organ weight / liver / absolute + systemic / organ weight…

Compound CC(C)=C1CC[C@@H](C)CC1=O [R-(+)-Pulegone] has an LEL (rat [1]; [18]) of 9.38 mg/kg/day, an NEL (rat [1]; [18]) of less than 9.38 mg/kg/day and an LOAEL (rat [1]; [19]) greater than 150 mg/kg/day. It also gave an NOAEL (rat [1]; [19]) of no less than 150 mg/kg/day, an LOAEL (mouse [2]; [20]) of 75 mg/kg/day and an NOAEL (mouse [2]; [20]) of 37.5 mg/kg/day. It also gave an LEL (mouse [2]; [21]) of 37.5 mg/kg/day, an NEL (mouse [2]; [21]) of less than 37.5 mg/kg/day and an LEL (mouse [3]; [22]) of 18.8 mg/kg/day. For the same compound, the LOAEL (mouse [3]; [23]) was greater than 150 mg/kg/day, the NEL (mouse [3]; [23]) was 9.38 mg/kg/day and the NOAEL (mouse [3]; [23]) was no less than 150 mg/kg/day. It also gave an LOAEL (rat [4]; systemic / pathology microscopic / kidney / glomerulonephropathy + systemic / pathology microscopic / liver / basophilic focus + systemic / …) of 37.5 mg/kg/day, an LEL (rat [4]; [24]) of 18.8 mg/kg/day and an NEL (rat [4]; [24]) of less than 18.8 mg/kg/day.

In the case of Cc1nn(-c2cc(NS(C)(=O)=O)c(Cl)cc2Cl)c(=O)n1C(F)F [Sulfentrazone], the LEL (rat [5]; [25]) was 25 mg/kg/day, the LOAEL (rat [5]; [25]) was 25 mg/kg/day and the NEL (rat [5]; [25]) was 10 mg/kg/day. For the same compound, the NOAEL (rat [5]; [25]) was 10 mg/kg/day, the LOAEL (rat [5]; [26]) was 50 mg/kg/day and the LEL (rat [5]; [27]) was 50 mg/kg/day. It also gave an NEL (rat [5]; [27]) of 25 mg/kg/day, an NOAEL (rat [5]; [27]) of 25 mg/kg/day and an LOAEL (dog [6]; [28]) of 57 mg/kg/day. The NEL (dog [6]; [28]) was 10 mg/kg/day, the NOAEL (dog [6]; [28]) was 28 mg/kg/day and the LEL (dog [6]; [22]) was 28 mg/kg/day. It also gave an LEL (rat [7]; [29]) of 25 mg/kg/day, an LOAEL (rat [7]; [29]) of 25 mg/kg/day and an NEL (rat [7]; [30]) of 10 mg/kg/day. It also gave an NOAEL (rat [7]; [30]) of 10 mg/kg/day, an LOAEL (rat [7]; [26]) of 50 mg/kg/day and an LEL (rat [7]; [27]) of 50 mg/kg/day. The NEL (rat [7]; [27]) was 25 mg/kg/day, the NOAEL (rat [7]; [27]) was 25 mg/kg/day and the LOAEL (mouse [8]; [31]) was 108 mg/kg/day. For the same compound, the NEL (mouse [8]; [31]) was 17.8 mg/kg/day, the NOAEL (mouse [8]; [31]) was 60 mg/kg/day and the LEL (mouse [8]; systemic / hematology / hematocrit (hct) / hematocrit (hct)) was 60 mg/kg/day. The LEL (rat [9]) was 25 mg/kg/day, the LOAEL (rat [9]) was greater than 50 mg/kg/day and the NEL (rat [9]) was less than 25 mg/kg/day. It also gave an NOAEL (rat [9]) of no less than 50 mg/kg/day, an LOAEL (rabbit; [32]) of 375 mg/kg/day and an LEL (rabbit; group: developmental, systemic / in life observation / body weight / fetal weight + developmental / developmental malformation / bone / fused) of 250 mg/kg/day. It also gave an NEL (rabbit; [33]) of 100 mg/kg/day, an NOAEL (rabbit; [33]) of 250 mg/kg/day and an LOAEL (rabbit; [34]) of 375 mg/kg/day. For the same compound, the NEL (rabbit; [34]) was 100 mg/kg/day, the NOAEL (rabbit; [34]) was 250 mg/kg/day and the LEL (rabbit; group: maternal, reproductive / reproductive performance / resorptions / resorptions + systemic / in life observation / body weight / body weight gain + …) was 250 mg/kg/day. The LOAEL (dog [10]; systemic / hematology / microcytosis / microcytosis) was 61.2 mg/kg/day, the NEL (dog [10]; [35]) was 9.9 mg/kg/day and the NOAEL (dog [10]; [35]) was 24.9 mg/kg/day. It also gave an LEL (dog [10]; systemic / pathology microscopic / gallbladder / pigmentation) of 24.9 mg/kg/day, an LOAEL (rat [11]) of 65.8 mg/kg/day and an NOAEL (rat [11]) of 19.9 mg/kg/day. For the same compound, the LEL (rat [12]; [32]) was 50 mg/kg/day, the LOAEL (rat [12]; [32]) was greater than 50 mg/kg/day and the NEL (rat [12]; [32]) was 25 mg/kg/day. The NOAEL (rat [12]; [32]) was no less than 50 mg/kg/day, the LEL (rat [12]; [36]) was 50 mg/kg/day and the LOAEL (rat [12]; [36]) was greater than 50 mg/kg/day. The NEL (rat [12]; [36]) was 25 mg/kg/day, the NOAEL (rat [12]; [36]) was no less than 50 mg/kg/day and the LOAEL (mouse [13]; systemic / hematology / hematocrit (hct) / hematocrit (hct) + systemic / hematology / hemoglobin (hgb) / hemoglobin (hgb)) was 160 mg/kg/day. For the same compound, the NOAEL (mouse [13]; systemic / hematology / hematocrit (hct) / hematocrit (hct) + systemic / hematology / hemoglobin (hgb) / hemoglobin (hgb) + systemic / …) was 93.9 mg/kg/day, the LEL (mouse [13]; [37]) was 46.6 mg/kg/day and the NEL (mouse [13]; [37]) was less than 46.6 mg/kg/day.

Cc1ccc(S(=O)(=O)[O-])cc1C.[Na+] [Sodium xylenesulfonate] was tested, and the LEL (rat [14]; [38]) was 60 mg/kg/day, the LOAEL (rat [14]; [38]) was 120 mg/kg/day and the NEL (rat [14]; [38]) was less than 60 mg/kg/day. The NOAEL (rat [14]; systemic / pathology microscopic / skin / hyperplasia + systemic / in life observation / clinical signs / [other]) was 60 mg/kg/day, the LEL (mouse [15]; [38]) was 170 mg/kg/day and the LOAEL (mouse [15]; [38]) was 1300 mg/kg/day. The NEL (mouse [15]; [38]) was 60 mg/kg/day, the NOAEL (mouse [15]; systemic / pathology microscopic / skin / hyperplasia + systemic / in life observation / body weight / body weight gain) was 440 mg/kg/day and the NEL (rat [16]; systemic / in life observation / clinical signs / skin discoloration) was 800 mg/kg/day. The LOAEL (rat [16]; [39]) was greater than 500 mg/kg/day, the NOAEL (rat [16]; [39]) was no less than 500 mg/kg/day and the LEL (mouse [17]) was 364 mg/kg/day. It also gave an LOAEL (mouse [17]) of 364 mg/kg/day, an NEL (mouse [17]) of 182 mg/kg/day and an NOAEL (mouse [17]) of 182 mg/kg/day.
